Residue numbers refer to the chain shown, from its start.
What was measured:
FLT3(D835Y) = target: T1, FLT3(D835Y) (Homo sapiens, UniProt P36888, D835Y); experiment: scanMAX kinase panel; type: binding; conditions: read-out: % Control; for remaining binding at 1 µM: 1000 nM
T1 construct: purchased DiscoverX scanMAX
T1 sequence (P36888 27-993 D835Y): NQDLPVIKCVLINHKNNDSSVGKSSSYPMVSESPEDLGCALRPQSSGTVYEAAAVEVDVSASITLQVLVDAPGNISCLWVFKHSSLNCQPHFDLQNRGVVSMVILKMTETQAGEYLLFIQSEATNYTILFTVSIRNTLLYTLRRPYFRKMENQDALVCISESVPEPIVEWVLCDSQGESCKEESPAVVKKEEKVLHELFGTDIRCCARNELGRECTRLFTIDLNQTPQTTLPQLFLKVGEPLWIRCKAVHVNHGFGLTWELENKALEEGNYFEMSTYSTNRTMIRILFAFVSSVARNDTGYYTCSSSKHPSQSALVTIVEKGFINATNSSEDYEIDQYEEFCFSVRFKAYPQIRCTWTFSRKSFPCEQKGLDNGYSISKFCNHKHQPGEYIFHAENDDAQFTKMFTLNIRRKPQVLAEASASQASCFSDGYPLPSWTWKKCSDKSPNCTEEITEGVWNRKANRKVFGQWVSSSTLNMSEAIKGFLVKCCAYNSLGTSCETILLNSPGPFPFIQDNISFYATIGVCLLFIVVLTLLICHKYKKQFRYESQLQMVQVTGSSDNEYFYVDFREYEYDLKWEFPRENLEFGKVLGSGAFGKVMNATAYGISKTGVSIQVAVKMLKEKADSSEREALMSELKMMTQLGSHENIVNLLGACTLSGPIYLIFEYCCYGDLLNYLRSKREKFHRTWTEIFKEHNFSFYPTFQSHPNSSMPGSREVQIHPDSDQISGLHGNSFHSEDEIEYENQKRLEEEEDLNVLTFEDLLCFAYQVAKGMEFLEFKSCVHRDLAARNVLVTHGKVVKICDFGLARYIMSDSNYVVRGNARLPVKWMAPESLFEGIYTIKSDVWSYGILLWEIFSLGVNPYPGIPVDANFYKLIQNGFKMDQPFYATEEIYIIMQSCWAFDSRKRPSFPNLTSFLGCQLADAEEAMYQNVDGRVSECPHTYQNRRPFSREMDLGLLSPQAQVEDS
From the text: (§1) Supplemental Table S2. scanMAXSM Kinome Assay Results. Complete tabulated data of all 468 kinases from the panel, including
(§2) 403 wild-type and 65 mutant isoforms. […] Cmpd 11 and Cmpd 24

FLT3 [1] = target: T2, FLT3 (Homo sapiens, UniProt P36888); experiment: scanMAX kinase panel; type: binding; design: purchased DiscoverX scanMAX; conditions: read-out: % Control; for remaining binding at 1 µM: 1000 nM
T2 sequence (P36888 27-993): T1 sequence (P36888 27-993 D835Y) with Y809D
From the text: as §1, §2

786-O RCC xenografts = experiment: 786-O ccRCC tumor xenograft study; type: in vivo; conditions: for tolerability by body weight measurement / tumor growth inhibition: 30 mg/kg BID oral, 29 days
Procedure: In vivo studies of the effect of pyrrolopyrimidines on 786-O xenograft inhibition follow a method published elsewhere. Female BALB/c nude mice were inoculated subcutaneously with 786-O tumor cells (5 × 10^6) in 0.1 mL of PBS. Animals were randomized when tumors reached 100–200 mm^3 into treatment groups. […] Tumor volumes were measured by caliper and the volume was expressed in mm^3 using the formula: V = (L × W × W)/2, where V, L, and W represent tumor volume, length, and width, respectively. All studies were conducted following an IACUC-approved protocol (AN-1903-05-1798). Experimental data management and reporting were in accordance with applicable Crown Bioscience’s Guidelines and Standard Operating Procedures.

PKR = target: T3, PKR (Homo sapiens, UniProt P19525); experiment: ISR kinase cell-free biochemical assay (Carna), PKR; conditions: ATP 6 µM
T3 construct: purchased Carna 05-156
Procedure: In brief, 26 was dissolved in DMSO and serially diluted 3-fold to generate concentrations ranging from 10 µM to 0.2 nM in a 384-well plate using a TECAN EVO200 automated liquid handler. 10 nL stock solution was transferred into each well of a 384well assay plate by an Echo550 and an equivalent volume of DMSO was added to the control wells. To each assay well, recombinant protein was suspended in 20 µL reaction buffer (listed below) and incubated at 25 °C for 1.5 h while shaking at 1250 rpm. Following incubation, 10 µL of a FRET dilution buffer including 20 mM EDTA and 4 nM Tb-anti-peIF2a [pSer51] (Invitrogen, Cat# PV4815) was added to each well and incubated at 25 °C for 2 h while shaking at 600 rpm in the dark. Analysis was performed using an Envision Microplate Reader (PerkinElmer).

FLT3 [2] = target: T2, FLT3; experiment: Radiometric in vitro kinase activity assay, FLT3; type: biochemical; conditions: wild-type FLT3, radiometric, up to 10 μM
MOLM-16 (FLT3wt) = experiment: Cell viability assay, MOLM-16; type: cell-based; conditions: Homo sapiens, MOLM16

T3 sequence (P19525 whole entry): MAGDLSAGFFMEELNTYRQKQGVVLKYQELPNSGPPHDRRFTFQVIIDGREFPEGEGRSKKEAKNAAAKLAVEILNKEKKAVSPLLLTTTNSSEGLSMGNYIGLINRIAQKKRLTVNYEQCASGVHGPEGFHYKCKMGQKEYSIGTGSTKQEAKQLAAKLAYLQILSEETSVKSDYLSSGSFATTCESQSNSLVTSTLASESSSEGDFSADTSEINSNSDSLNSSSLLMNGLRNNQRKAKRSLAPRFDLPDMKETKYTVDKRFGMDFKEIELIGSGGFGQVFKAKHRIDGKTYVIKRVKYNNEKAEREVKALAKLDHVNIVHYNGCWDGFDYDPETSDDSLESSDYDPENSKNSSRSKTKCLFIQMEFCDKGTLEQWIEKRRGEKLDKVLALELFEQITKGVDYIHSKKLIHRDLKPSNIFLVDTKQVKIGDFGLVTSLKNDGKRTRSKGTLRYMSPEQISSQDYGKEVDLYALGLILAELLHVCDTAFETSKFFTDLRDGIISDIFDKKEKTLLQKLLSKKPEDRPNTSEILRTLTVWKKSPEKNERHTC

Row | Structure (SMILES) | remaining binding at 1 µM (FLT3(D835Y)) [%] | remaining binding at 1 µM (FLT3 [1]) [%] | tolerability by body weight measurement (786-O RCC xenografts) | tumor growth inhibition (786-O RCC xenografts) | IC50 (PKR) [µM] | IC50 (FLT3 [2]) [µM] | IC50 (MOLM-16 (FLT3wt)) [µM] | effect on body weight (786-O RCC xenografts; 10 or 30 mg/kg, 28-day study period) | tumor volume (786-O RCC xenografts; 10 or 30 mg/kg, 28 days) | remaining binding at 0.1 µM (FLT3(D835Y); 100 nM) [%] | remaining binding at 0.1 µM (FLT3 [1]; 100 nM) [%]
1 | Cc1cc(NC(=O)[C@H](O)c2cccc(F)c2)ccc1-c1cn(C)c2ncnc(N)c12 [Compound 11, (R)-N-(4-(4-amino-7-methyl-7H-pyrrolo[2,3-d]pyrimidin-5-yl)-3-methylphenyl)-2-(3-fluorophenyl)-2-hydroxy acetamide] | 80 | 4.3 |  |  |  |  |  |  |  |  | 
2 | Cc1nc(N)c2c(-c3ccc(NC(=O)[C@H](O)c4cccc(F)c4)cc3C)cn(C)c2n1 [Compound 24] | 96 | 66 | well tolerated | significant tumor growth inhibition |  |  |  |  |  |  | 
3 | Cc1nc(N)c2c(-c3ccc(NC(=O)[C@H](O)c4cccc(C(F)(F)F)c4)cc3C)cn(C)c2n1 [Compound 26] | 35 | 0 | well tolerated | significant tumor growth inhibition | > 10 | > 1 | > 10 | No significant effects on body weght | significantly decreased tumor volume | 88 | 41
4 | Cc1nc(N)c2c(-c3ccc(NC(=O)[C@H](O)c4cccc(F)c4)c(F)c3F)cn(C)c2n1 [Compound 70, (R)-N-(4-(4-amino-2,7-dimethyl-7H-pyrrolo[2,3-d]pyrimidin-5-yl)-2,3-difluorophenyl)-2-(3-fluorophenyl)-2-hydroxyacetamide] |  |  | well tolerated | significant tumor growth inhibition |  |  |  |  |  |  | 
